From patent US8686146B2, “Azaindenoisoquinoline topoisomerase I inhibitors” (Purdue Research Foundation, priority 2012, dated 2014)
Structures can show the parent of a compound that is named as a salt.

How the values were obtained:
MCF7 = assay: NCI screen antiproliferative activity, breast MCF7
Protocol: (§1) Cells of approximately 60 different human cancer cell lines were incubated for 48 h with five 10-fold dilutions of the tested compounds starting from 100 μM and then treated with sulforhodamine B dye. The ratios of recorded optical densities relative to that of the control were plotted as a function of the common logarithm of the tested compound concentrations. […] The GI50 and the mean graph midpoint (MGM) values of the prepared indenoisoquinolines in selected cell lines are presented in Table I.
(§2) The antiproliferative activity of each compound was determined in the National Cancer Institute (NCI) screen as described above. Cells of approximately 60 different human cancer cell lines were incubated for 48 h with five 10-fold dilutions of the test compounds starting from 100 μM, and then treated with sulforhodamine B dye. The ratios of recorded optical densities relative to those of the control were plotted as a function of the common logarithm of the tested compound concentrations. […] The GI50 and the mean graph midpoint (MGM) values of the prepared (aza)indeno-isoquinolines in selected cell lines are presented in Table 2.

HOP-62 = assay: NCI screen antiproliferative activity, lung HOP-62
Protocol: as §1, §2

SN12C = assay: NCI screen antiproliferative activity, renal SN12C
Protocol: as §1, §2

DU-145 = assay: NCI screen antiproliferative activity, prostate DU-145
Protocol: as §1, §2

SF-539 = assay: NCI screen antiproliferative activity, CNS SF-539
Protocol: as §1, §2

human recombinant Top1 = biological target: T1, human recombinant Top1 (Homo sapiens, UniProt P11387); assay: Top1-mediated DNA cleavage assay; type: biochemical; settings: semiquantitative, relative to compounds 1 and 2
T1 construct: made in house
T1 sequence (P11387 1-765): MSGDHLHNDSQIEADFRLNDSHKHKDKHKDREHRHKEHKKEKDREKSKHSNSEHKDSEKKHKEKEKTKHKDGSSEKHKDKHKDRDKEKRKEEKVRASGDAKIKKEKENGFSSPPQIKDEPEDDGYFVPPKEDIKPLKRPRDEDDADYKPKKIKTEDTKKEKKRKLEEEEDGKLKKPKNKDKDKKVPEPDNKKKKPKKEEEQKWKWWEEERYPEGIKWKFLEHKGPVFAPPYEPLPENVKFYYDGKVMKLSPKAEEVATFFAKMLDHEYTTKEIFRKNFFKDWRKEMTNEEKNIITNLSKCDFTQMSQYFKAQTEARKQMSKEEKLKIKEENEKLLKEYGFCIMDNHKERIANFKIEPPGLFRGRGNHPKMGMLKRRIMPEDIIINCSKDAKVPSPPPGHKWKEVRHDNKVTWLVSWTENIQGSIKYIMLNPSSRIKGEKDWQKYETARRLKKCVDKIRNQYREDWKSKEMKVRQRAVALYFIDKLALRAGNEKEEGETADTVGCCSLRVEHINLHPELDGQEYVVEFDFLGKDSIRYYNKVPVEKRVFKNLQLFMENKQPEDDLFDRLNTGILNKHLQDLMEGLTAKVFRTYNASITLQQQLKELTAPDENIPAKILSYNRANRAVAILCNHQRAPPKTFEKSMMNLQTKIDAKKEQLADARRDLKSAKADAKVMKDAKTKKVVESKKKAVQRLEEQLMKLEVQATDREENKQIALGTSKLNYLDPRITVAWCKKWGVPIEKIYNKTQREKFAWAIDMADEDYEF
Protocol: Unincorporated [^32P]dGTP was removed using mini Quick […] columns (Roche, Indianapolis, Ind.), and the eluate containing the […] DNA substrate was collected. […] Aliquots of each reaction mixture were subjected to 20% denaturing PAGE. […] The DNA fragments were separated on a denaturing gel. […] All of the target compounds were tested for induction of DNA damage in Top1-mediated DNA cleavage assays, as described above.

[1] = system: approximately 60 different human cancer cell lines; assay: NCI screen, mean graph midpoint over all cell lines; type: cell-based; settings: all human cancer cell lines successfully tested, 48 h
Protocol: as §1, §2

UACC-62 = assay: NCI screen antiproliferative activity, melanoma UACC-62
Protocol: as §1, §2

OVCAR-3 = assay: NCI screen antiproliferative activity, ovarian OVCAR-3
Protocol: as §1, §2

HCT-116 = assay: NCI screen antiproliferative activity, colon HCT-116
Protocol: as §1, §2

SMILES | Top1 Cleavage (human recombinant Top1; Table 2) | Top1 Cleavage (human recombinant Top1; Table 1) | melting point | GI50 (MCF7) [nM] | GI50 (HOP-62) [nM] | GI50 (SN12C) [nM] | GI50 (DU-145) [nM] | GI50 (SF-539) [nM] | MGM (mean graph midpoint for growth inhibition) ([1]; Table 2) [µM] | GI50 (UACC-62) [nM] | GI50 (OVCAR-3) [nM] | GI50 (HCT-116) [nM] | MGM (mean graph midpoint for growth inhibition) ([1]; Table 1) [µM]
COc1cc2c3c(n(CCCN(C)C)c(=O)c2cc1OC)-c1ccncc1C3=O.O=C(O)C(F)(F)F [Compound 127, 9-Aza-5,6-dihydro-6-(3-dimethylaminopropyl)-2,3-dimethoxy-5,11-dioxo-11H-indeno[1,2-]isoquinoline Trifluoroacetate] | + (+ weak activity;) | – | – | 3900 | 6500 | 8500 | 2900 | 12000 | 6.5 | > 100000 | 7400 | 620 | –
COc1cc2c3c(n(CCCN4CCOCC4)c(=O)c2cc1OC)-c1ccncc1C3=O.O=C(O)C(F)(F)F [Compound 128, 9-Aza-5,6-dihydro-6-(3-(4-morpholino)propyl)-2,3-dimethoxy-5,11-dioxo-11H-indeno[1,2-c]isoquinoline Trifluoroacetate] | ++ | – | – | 1900 | 5000 | 5900 | 7600 | > 100000 | 9.5 | 85000 | 12000 | 390 | –
O=C1c2cccnc2-c2c1c1ccccc1c(=O)n2CCCn1ccnc1 [Compound 28, 7-Aza-5,6-dihydro-6-(3-(1H-imidazol-1-yl)propyl)-5,11-dioxo-11H-indeno[1,2-c]isoquinoline] | – | ++ | – | 3390 | 7240 | 3720 | 2880 | 5130 | – | 35500 | 8710 | 1200 | 7.24
CN(C)CCCn1c2c(c3ccccc3c1=O)C(=O)c1cccnc1-2 (as salt: hydrochloride) [Compound 18, 7-Aza-5,6-dihydro-6-(3-dimethylaminopropyl)-5,11-dioxo-11H-indeno[1,2-c]-isoquinoline Hydrochloride] | – | – | 268 to 270 °C | – | – | – | – | – | – | – | – | – | –

Further lines, with some results ahead:

Top1 Cleavage (human recombinant Top1; Table 2) | Top1 Cleavage (human recombinant Top1; Table 1) | melting point | SMILES | GI50 (MCF7) [nM] | GI50 (HOP-62) [nM] | GI50 (SN12C) [nM] | GI50 (DU-145) [nM] | GI50 (SF-539) [nM] | MGM (mean graph midpoint for growth inhibition) ([1]; Table 2) [µM] | GI50 (UACC-62) [nM] | GI50 (OVCAR-3) [nM] | GI50 (HCT-116) [nM] | MGM (mean graph midpoint for growth inhibition) ([1]; Table 1) [µM]
++ | – | – | COc1cnc2c(c1)C(=O)c1c-2n(CCCN2CCOCC2)c(=O)c2cc(OC)c(OC)cc12.Cl [Compound 56, 7-Aza-5,6-dihydro-6-[3-(4-morpholino)propyl]-2,3,9-trimethoxy-5,11-dioxo-11H-indeno[1,2-c]isoquinoline Hydrochloride] | 100 | 240 | 340 | 340 | 270 | 0.48 | 220 | 310 | 330 | –
+++ | – | – | COc1cnc2c(c1)C(=O)c1c-2n(CCCN(C)C)c(=O)c2cc([N+](=O)[O-])ccc12 [Compound 65, 7-Aza-5,6-dihydro-6-(3-dimethylaminopropyl)-9-methoxy-3-nitro-5,11-dioxo-11H-indeno[1,2-c]isoquinoline] | 24 | 54 | 57 | 51 | 78 | 0.11 | 52 | 140 | 74 | –
+++ | – | – | COc1cnc2c(c1)C(=O)c1c-2n(CCCN(C)C)c(=O)c2ccccc12 [Compound 63, 7-Aza-5,6-dihydro-6-(3-dimethylaminopropyl)-9-methoxy-5,11-dioxo-11H-indeno[1,2-c]isoquinoline] | 210 | 300 | 260 | 300 | 570 | 0.40 | 540 | 940 | 340 | –
++++ (++++ similar activity as 1 μM 1.) | – | – | COc1cnc2c(c1)C(=O)c1c-2n(CCCN2CCOCC2)c(=O)c2cc([N+](=O)[O-])ccc12 [Compound 66, 7-Aza-5,6-dihydro-6-(3-(4-morpholino)propyl)-9-methoxy-3-nitro-5,11-dioxo-11H-indeno[1,2-c]isoquinoline] | 20 | 51 | 43 | 40 | 35 | 0.085 | 40 | 110 | 50 | –
– | – | 278 to 281 °C (dec.) | COc1cc2c3c(n(CCCN(C)C)c(=O)c2cc1OC)-c1ncccc1C3=O (as salt: hydrochloride) [Compound 19, 7-Aza-5,6-dihydro-6-(3-dimethylaminopropyl)-2,3-dimethoxy-5,11-dioxo-11H-indeno[1,2-c]isoquinoline Hydrochloride] | – | – | – | – | – | – | – | – | – | –
